# Test results from publication PMC7604909, “Structure of a GH51 α-L-arabinofuranosidase from Meripilus giganteus: conserved substrate recognition from bacteria to fungi” (Acta Crystallographica. Section D, Structural Biology, 2020).
# Where a name gives a salt, the structure may show the parent alone.
# Experiments:
# MgGH51 [1] = molecular target: T1, MgGH51 (Meripilus giganteus, UniProt Z9H0M4BQG1); assay: hydrolysis kinetics, released L-arabinose quantified on CarboPac PA20; type: biochemical; settings: 40 °C, 50 mM sodium acetate pH 4, 5 ng/ml enzyme, 0.02-2.5 mM substrate; kind of constant not told in main text
# T1 construct: mature secreted enzyme, expressed in Aspergillus oryzae, N-glycosylated (Asn145, Asn245, Asn421, Asn487), untagged
# T1 sequence (Z9H0M4BQG1 1-627): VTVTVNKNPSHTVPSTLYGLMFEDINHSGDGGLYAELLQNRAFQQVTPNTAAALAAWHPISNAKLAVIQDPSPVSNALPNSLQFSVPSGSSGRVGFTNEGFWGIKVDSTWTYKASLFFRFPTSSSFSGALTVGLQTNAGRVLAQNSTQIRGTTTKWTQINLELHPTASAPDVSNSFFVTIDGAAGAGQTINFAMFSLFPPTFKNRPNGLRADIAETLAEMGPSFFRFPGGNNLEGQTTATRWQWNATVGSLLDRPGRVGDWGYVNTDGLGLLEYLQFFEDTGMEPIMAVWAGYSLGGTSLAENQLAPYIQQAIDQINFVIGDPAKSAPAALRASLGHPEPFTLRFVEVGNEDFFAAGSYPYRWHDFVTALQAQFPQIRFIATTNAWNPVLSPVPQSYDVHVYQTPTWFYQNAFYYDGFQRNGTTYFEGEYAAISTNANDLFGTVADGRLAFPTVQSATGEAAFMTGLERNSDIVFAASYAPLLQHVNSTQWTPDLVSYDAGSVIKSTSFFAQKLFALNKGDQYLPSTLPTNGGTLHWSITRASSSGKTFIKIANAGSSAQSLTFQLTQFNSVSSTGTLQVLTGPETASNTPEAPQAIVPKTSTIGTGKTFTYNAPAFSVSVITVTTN
# MgGH51 [2] = molecular target: T1, MgGH51; assay: X-ray crystal structure, […] Å; type: binding; settings: type 1 crystal, about one equivalent of inhibitor, 1 h at room temperature; covalent, bound to nucleophile Glu429 (ring-opened aziridine)
# MgGH51 [3] = molecular target: T1, MgGH51; assay: X-ray crystal structure, […] Å; type: binding; settings: type 1 crystal, about one equivalent of inhibitor, 1 h at room temperature; covalent, bound to nucleophile Glu429 (ring-opened cyclic sulfate); PDB code from Tables 3 and 4, the supplementary list pri
SMILES,"hydrolysis kinetics, released L-arabinose quantified on CarboPac PA20 (MgGH51 [1])",other results
"OC[C@@H]1O[C@@H](OC[C@@H]2O[C@@H](OC[C@@H]3OC(O)[C@H](O)[C@H]3O)[C@H](O)[C@H]2O)[C@H](O)[C@H]1O (stereo partly drawn) [A3, α(1,5)-linked arabinotriose]",Measurement of the hydrolytic kinetics of MgGH51 towards the AX2 and A3 oligosaccharides,
"OC[C@H]1[C@H](O)[C@@H](O)[C@@H]2N[C@H]12 [α-L-AraAZI, α-L-arabinocyclophellitol aziridine]",,"X-ray crystal structure, 1.54 Å (MgGH51 [2]): α-L-AraCS or α-L-AraAZI gave clear density for these two ligands bound to Glu429"
"O=S1(=O)O[C@@H]2[C@@H](CO)[C@H](O)[C@@H](O)[C@@H]2O1 [α-L-AraCS, α-L-arabinocyclophellitol cyclic sulfate]",,"X-ray crystal structure, 1.71 Å (MgGH51 [3]): α-L-AraCS or α-L-AraAZI gave clear density for these two ligands bound to Glu429"
"OC[C@@H]1O[C@@H](O[C@@H]2[C@@H](O)[C@H](O[C@@H]3COC(O)[C@H](O)[C@H]3O)OC[C@H]2O)[C@H](O)[C@H]1O (stereo partly drawn) [AX2, 3^2-α-L-Arabinofuranosyl-xylobiose]",Measurement of the hydrolytic kinetics of MgGH51 towards the AX2 and A3 oligosaccharides,
